Key:
[1] = system: RLP-C; test: RLP-C in patients with diabetes mellitus-2 (Example 2); format: in vivo, human; conditions: 4 g/day, 12 weeks, on statin
Text: (§1) Parameters (a)-(y) can be measured in accordance with any clinically acceptable methodology. For example, triglycerides, total cholesterol, HDL-C and fasting blood sugar can be sample from serum and analyzed using standard photometry techniques. VLDL-TG, LDL-C and VLDL-C can be calculated or determined using serum lipoprotein fractionation by preparative ultracentrifugation and subsequent quantitative analysis by refractometry or by analytic ultracentrifugal methodology. Apo A1, Apo B and hsCRP can be determined from serum using standard nephelometry techniques. Lipoprotein (a) can be determined from serum using standard turbidimetric immunoassay techniques. LDL particle number and particle size can be determined using nuclear magnetic resonance (NMR) spectrometry. Remnants lipoproteins and LDL-phospholipase A2 can be determined from EDTA plasma or serum and serum, respectively, using enzymatic immunoseparation techniques. Oxidized LDL, intercellular adhesion molecule-1 and interleukin-2 levels can be determined from serum using standard enzyme immunoassay techniques. These techniques are described in detail in standard textbooks, for example Tietz Fundamentals of Clinical Chemistry, 6th Ed. (Burtis, Ashwood and Borter Eds.), WB Saunders Company.
The effect of >96% E-EPA on lipid and inflammatory parameters was evaluated in patients with fasting triglyceride levels ≧150 mg/dl and <499 mg/dl on concomitant statin therapy. Patients with diabetes mellitus-2 were randomized and treated with either 2 g/day >96% E-EPA, 4 g/day >96%, or placebo for twelve weeks. At the end of the treatment period, several diabetes efficacy endpoints were evaluated including, TG, LDL-C, non-HDL-C, VLDL-C, Lp-PLA2, Apo B, TC, HDL-C, VLDL-TG, hs-CRP, oxLDL, and RLP-C.

[2] = system: hsCRP; test: ANCHOR study, hsCRP (also by statin type and statin efficacy regimen); format: in vivo, human
Text: as §1
A multi-center, placebo-controlled, randomized, double-blind, 12-week study was performed to evaluate the efficacy and safety of >96% E-EPA in patients with fasting triglyceride levels ≧200 mg/dl and <500 mg/dl despite statin therapy (the mean of two qualifying entry values needed to be ≧185 mg/dl and at least one of the values needs to be ≧200 mg/dl). The primary objective of the study was to determine the efficacy of >96% E-EPA 2 g daily and 4 g daily, compared to placebo, in lowering fasting TG levels in patients with high risk for cardiovascular disease and with fasting TG levels ≧200 mg/dL and <500 mg/dL, despite treatment to LDL-C goal on statin therapy.
The population for this study was men and women >18 years of age with a body mass index ≦45 kg/m^2 with fasting TG levels greater than or equal to 200 mg/dl and less than 500 mg/dl and on a stable does of statin therapy (with or without ezetimibe). The statin must have been atorvostatin, rosuvastatin or simvastatin. The dose of statin must have been stable for ≧4 weeks prior to the LDL-C/TG baseline qualifying measurement for randomization. The statin dose was optimal such that the patients are at their LDL-C goal at the LDL-C/TG baseline qualifying measurements. The same statin at the same dose was continued until the study ended.
Approximately 648 patients were randomized at approximately 80 centers in the U.S. The study was a 18- to 20-week, Phase 3, multi-center study consisting of 2 study periods: (1) A 6- to 8-week screening period that included a diet and lifestyle stabilization, a non-statin lipid-altering treatment washout, and an LDL-C and TG qualifying period and (2) A 12-week, double-blind, randomized, placebo-controlled treatment period.
After confirmation of qualifying fasting LDL-C and TG values, eligible patients entered a 12-week, randomized, double-blind treatment period. At Visit 4 (Week 0), patients were randomly assigned to 1 of the following treatment groups: • >96% E-EPA 2 g daily, • >96% E-EPA 4 g daily, or • Placebo.
Approximately 216 patients per treatment group were randomized in this study. Stratification was by type of statin (atorvastatin, rosuvastatin or simvastatin), the presence of diabetes, and gender. […]

CC/C=C\C/C=C\C/C=C\C/C=C\C/C=C\CCCC(=O)OCC [AMR101, all-cis eicosa-5,8,11,14,17-pentaenoic acid ethyl ester]
Median placebo-adjusted percent change in RLP-C from baseline to study end ([1]; less-controlled diabetes (HbA1c ≧ median of 6.8%)): −21.3%
Median placebo-adjusted percent change in RLP-C from baseline to study end ([1]; total diabetes): −25.0%
Median placebo-adjusted percent change in RLP-C from baseline to study end ([1]; well-controlled diabetes (HbA1c < median of 6.8%)): −26.7%
hsCRP end-of-treatment value, median ([2]; ANCHOR ITT, 2 g/day, week 12): 2.5 mg/L
hsCRP change from baseline (median) ([2]; ANCHOR ITT, 4 g/day, week 12): −2.4%
hsCRP end-of-treatment value, median ([2]; ANCHOR ITT, 4 g/day, week 12): 2.0 mg/L
hsCRP median placebo-adjusted % change from baseline ([2]; ANCHOR, atorvastatin, AMR101 2 g/day vs placebo, P 0.6563): −9.3%
hsCRP change from baseline, median % ([2]; ANCHOR, atorvastatin, AMR101 2 g/day, week 12): 20.1%
hsCRP end-of-treatment value, median ([2]; ANCHOR, atorvastatin, AMR101 2 g/day, week 12, baseline 1.7): 2.3 mg/L
hsCRP median placebo-adjusted % change from baseline ([2]; ANCHOR, atorvastatin, AMR101 4 g/day vs placebo, P 0.0475): −36.7%
hsCRP change from baseline, median % ([2]; ANCHOR, atorvastatin, AMR101 4 g/day, week 12): −11.7%
hsCRP end-of-treatment value, median ([2]; ANCHOR, atorvastatin, AMR101 4 g/day, week 12, baseline 2.1): 1.5 mg/L
hsCRP median placebo-adjusted % change from baseline ([2]; ANCHOR, higher-efficacy statin regimen, AMR101 2 g/day vs placebo, P 0.5227): −8.3%
hsCRP change from baseline, median % ([2]; ANCHOR, higher-efficacy statin regimen, AMR101 2 g/day, week 12): 16.7%
hsCRP end-of-treatment value, median ([2]; ANCHOR, higher-efficacy statin regimen, AMR101 2 g/day, week 12, baseline 1.7): 2.2 mg/L
hsCRP median placebo-adjusted % change from baseline ([2]; ANCHOR, higher-efficacy statin regimen, AMR101 4 g/day vs placebo, P 0.0210): −28.6%
hsCRP change from baseline, median % ([2]; ANCHOR, higher-efficacy statin regimen, AMR101 4 g/day, week 12): 0.0%
hsCRP end-of-treatment value, median ([2]; ANCHOR, higher-efficacy statin regimen, AMR101 4 g/day, week 12, baseline 2.5): 2.0 mg/L
hsCRP change from baseline, median % ([2]; ANCHOR, lower-efficacy statin regimen, AMR101 2 g/day, week 12): 13.3%
hsCRP end-of-treatment value, median ([2]; ANCHOR, lower-efficacy statin regimen, AMR101 2 g/day, week 12, baseline 1.5): 1.7 mg/L
hsCRP median placebo-adjusted % change from baseline ([2]; ANCHOR, lower-efficacy statin regimen, AMR101 4 g/day vs placebo, P 0.8843): 4.0%
hsCRP change from baseline, median % ([2]; ANCHOR, lower-efficacy statin regimen, AMR101 4 g/day, week 12): 11.9%
hsCRP end-of-treatment value, median ([2]; ANCHOR, lower-efficacy statin regimen, AMR101 4 g/day, week 12, baseline 2.1): 2.4 mg/L
hsCRP median placebo-adjusted % change from baseline ([2]; ANCHOR, medium-efficacy statin regimen, AMR101 2 g/day vs placebo, P 0.2839): −8.3%
hsCRP change from baseline, median % ([2]; ANCHOR, medium-efficacy statin regimen, AMR101 2 g/day, week 12): 8.7%
hsCRP end-of-treatment value, median ([2]; ANCHOR, medium-efficacy statin regimen, AMR101 2 g/day, week 12, baseline 2.3): 2.6 mg/L
hsCRP median placebo-adjusted % change from baseline ([2]; ANCHOR, medium-efficacy statin regimen, AMR101 4 g/day vs placebo, P 0.0034): −22.8%
hsCRP change from baseline, median % ([2]; ANCHOR, medium-efficacy statin regimen, AMR101 4 g/day, week 12): −7.7%
hsCRP end-of-treatment value, median ([2]; ANCHOR, medium-efficacy statin regimen, AMR101 4 g/day, week 12, baseline 2.2): 1.8 mg/L
hsCRP median placebo-adjusted % change from baseline ([2]; ANCHOR, rosuvastatin, AMR101 2 g/day vs placebo, P 0.3922): −11.0%
hsCRP change from baseline, median % ([2]; ANCHOR, rosuvastatin, AMR101 2 g/day, week 12): 0.0%
hsCRP end-of-treatment value, median ([2]; ANCHOR, rosuvastatin, AMR101 2 g/day, week 12, baseline 1.6): 2.0 mg/L
hsCRP median placebo-adjusted % change from baseline ([2]; ANCHOR, rosuvastatin, AMR101 4 g/day vs placebo, P 0.0217): −31.4%
hsCRP change from baseline, median % ([2]; ANCHOR, rosuvastatin, AMR101 4 g/day, week 12): −1.2%
hsCRP end-of-treatment value, median ([2]; ANCHOR, rosuvastatin, AMR101 4 g/day, week 12, baseline 2.6): 1.9 mg/L
hsCRP median placebo-adjusted % change from baseline ([2]; ANCHOR, simvastatin, AMR101 2 g/day vs placebo, P 0.6562): −3.8%
hsCRP change from baseline, median % ([2]; ANCHOR, simvastatin, AMR101 2 g/day, week 12): 11.0%
hsCRP end-of-treatment value, median ([2]; ANCHOR, simvastatin, AMR101 2 g/day, week 12, baseline 2.2): 2.7 mg/L
hsCRP median placebo-adjusted % change from baseline ([2]; ANCHOR, simvastatin, AMR101 4 g/day vs placebo, P 0.0755): −13.6%
hsCRP change from baseline, median % ([2]; ANCHOR, simvastatin, AMR101 4 g/day, week 12): 0.0%
hsCRP end-of-treatment value, median ([2]; ANCHOR, simvastatin, AMR101 4 g/day, week 12, baseline 2.2): 2.2 mg/L
hsCRP median placebo-adjusted change from baseline ([2]; ANCHOR, 2 g/day, concomitant atorvastatin): statistically insignificant
hsCRP median placebo-adjusted change from baseline ([2]; ANCHOR, 2 g/day, concomitant rosuvastatin): statistically insignificant
hsCRP median placebo-adjusted change from baseline ([2]; ANCHOR, 2 g/day, concomitant simvastatin): statistically insignificant
hsCRP median placebo-adjusted change from baseline ([2]; ANCHOR, 2 g/day, high-efficacy statin therapy): statistically insignificant
hsCRP median placebo-adjusted change from baseline ([2]; ANCHOR, 2 g/day, low-efficacy statin therapy): statistically insignificant
hsCRP median placebo-adjusted change from baseline ([2]; ANCHOR, 2 g/day, medium-efficacy statin therapy): statistically insignificant
hsCRP median placebo-adjusted change from baseline ([2]; ANCHOR, 4 g/day, concomitant atorvastatin): −36.7%
hsCRP median placebo-adjusted change from baseline ([2]; ANCHOR, 4 g/day, concomitant rosuvastatin): −31.4%
hsCRP median placebo-adjusted change from baseline ([2]; ANCHOR, 4 g/day, concomitant simvastatin): statistically insignificant
hsCRP median placebo-adjusted change from baseline ([2]; ANCHOR, 4 g/day, high-efficacy statin therapy): −28.6%
hsCRP median placebo-adjusted change from baseline ([2]; ANCHOR, 4 g/day, low-efficacy statin therapy (e.g., simvastatin 5-10 mg/day)): statistically insignificant
